Experimental data as given in patent US6808877B2, “Ligands for FPR class receptors that induce a host immune response to a pathogen or inhibit HIV infection” (priority 2000, dated 2004).
Where no end group is shown, it is not given here.

Assays:
FPRL1 = target: T1, FPRL1 (Homo sapiens, UniProt P25090); experiment: 3H-fMLP binding to FPRL1/293 cells
T1 construct: expressed in transfected cells; host or cells: HEK 293
T1 sequence (P25090 1-351): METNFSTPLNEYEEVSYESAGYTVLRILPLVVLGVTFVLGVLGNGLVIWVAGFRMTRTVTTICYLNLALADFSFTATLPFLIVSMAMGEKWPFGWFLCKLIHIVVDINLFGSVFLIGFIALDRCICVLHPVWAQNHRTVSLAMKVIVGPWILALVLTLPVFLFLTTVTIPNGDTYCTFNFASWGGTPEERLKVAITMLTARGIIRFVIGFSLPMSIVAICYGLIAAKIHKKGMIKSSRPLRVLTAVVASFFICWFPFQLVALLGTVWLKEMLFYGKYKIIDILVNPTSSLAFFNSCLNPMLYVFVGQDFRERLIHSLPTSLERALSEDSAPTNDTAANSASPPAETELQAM
Procedure: The cells were then washed with ice-cold PBS (phosphate buffered saline) and filtered onto Whatman discs. The radioactivity associated with the cells was measured with a β counter.
The samples were incubated under constant rotation for 30 minutes at 37° C. After incubation, the samples were filtered onto Whatman GF/C discs (Whatman International Ltd., Kent, UK) on a 12-well manifold followed by extensive washing with ice-cold phosphate-buffered saline (PBS). The discs were air-dried at 65° C., submerged in liquid scintilation cocktail, and counted for β emision.

human neutrophils = conditions: N-formylated or N-acetylated; cited from earlier work
FPRL1(LXA4R) [1] = target: T2, FPRL1(LXA4R) (Homo sapiens, UniProt P25090); conditions: CHO cells transfected with FPRL1(LXA4R); cited from earlier work
T2 construct: host or cells: CHO cells
T2 sequence (P25090 1-351): T1 sequence (P25090 1-351)

FPRL1(LXA4R) [2] = target: T2, FPRL1(LXA4R); conditions: CHO cells transfected with FPRL1(LXA4R); cited from earlier work; remark: listed apart in the source

CSCC[C@H](NC=O)C(=O)N[C@@H](CC(C)C)C(=O)N[C@@H](Cc1ccccc1)C(=O)O [^3H-fMLP]
binding to cells (FPRL1): did not significantly bind

Met-Ile-Leu-Phe-Phe-OH (MILFF-OH) [ID; No. 2]
potency in the induction of Ca2+ flux relative to fMLP (human neutrophils): more potent than parental fMLP

CCCCC[C@H](O)/C=C/C=C\C=C\C=C\[C@@H](O)[C@@H](O)CCCC(=O)O [LXA4, lipoxin A4]
GTPase activity and release of esterified arachidonate (FPRL1(LXA4R) [1]): increased GTPase activity and the release of esterified arachidonate
binding affinity (FPRL1(LXA4R) [2]): high affinity
